Holding throughout (assay type): in vivo
One experiment concerns Anthimis mixta. Nature of the experiment: Postemergence herbicidal evaluation, Test Serie B, in spring wheat (Table III). The following applies: weed growth stage 14, test period 14 days. The procedure: (§1) In the following examples, synergism for two-way combinations is determined by the Colby^1 method, i.e. the expected (or predicted) response of the combination is calculated by taking the product of the observed response for each individual component of the combination when applied alone divided by 100 and subtracting this value from the sum of the observed response for each component when applied alone. Synergism of the combination is then determined by comparing the observed response of the combination to the expected (or predicted) response as calculated from the observed responses of each individual component alone. If the observed response of the combination is greater than the expected (or predicted) response then the combination is said to be synergistic and falls within the definition of synergistic effect as previously defined.
(§2) The damage caused by the chemicals was assessed with reference to a scale from 0 to 100% in comparison with the untreated control plants. 0 means no damage and 100 means compete destruction of the plants.
(§3) For the post-emergence treatment, the test plants were first grown to a height of 3 to 20 cm, depending on the growth habit, and only then treated. The herbicides were suspended or emulsified in water as the vehicle and sprayed with the aid of finely distributing nozzles.
(§4) Cinidon-ethyl was formulated as a 20% by weight emulsion concentrate and employed in the spray mixture with addition of that amount of solvent system with which the active ingredient had been applied at the application rates shown in the tables.
(§5) Picolinofen was formulated as a 10% by weight emulsion concentrate and empolyed in the spray mixture with addition of that amount of solvent system with which the active ingredient had been applied at the rates shown in the tables.
(§6) The test period extended over 14 days. During this time, the plants were attended, and their responses to the treatments with active ingredients were recorded (Tables III and IV).

The next experiment concerns Veronica persicaria. Described as above. The following applies: weed growth stage 14, test period 14 days. The procedure: as §1, §2, §3, §4, §5, §6
For experiment [1], the system named is Stellaria media. Description: Postemergence herbicidal evaluation, Test Serie B, in spring barley (Table IV). To be noted: weed growth stage 22, test period 14 days. The procedure:
as §1, §2
For the post-emergence treatment, the test plants were first grown to a height of 3 to 20 cm, depending on the growth habit, and only then treated. […]
as §6

In another experiment the test system is Alopecuris myosuroides. Nature of the experiment: Postemergence herbicidal greenhouse evaluation, Test Serie A (Table I). The following applies: 21 days after treatment. The procedure:
as §1
(§7) Postemergence Herbicidal Greenhouse Evaluations
(§8) Plant seeds are sown in pots containing a loamy sand soil (0.5 l). The herbicides are applied as single treatments, or in a combination comprising a compound of formula I and a second compound as defined above, after emergence of weeds and crop. The herbicidal performance is assessed as percent damage in comparison to the untreated control plants. The assessment is done 21 days after the treatment. Wheat and barley are treated at the 3-4 leaf stage, the broad-leaf weeds at the 2-4 leaf stage and annual grasses at the 2-3 leaf stage. [formula]
(§9) For the compound of formula I picolinafen is employed.
as §2

The subject of another experiment is Galium aparine. The experiment is described as above. The following applies: 21 days after treatment. The procedure:
as §1, §7, §8, §9, §2

The test system of the next experiment is Lamium purpurium. Described as above. The following applies: 21 days after treatment. The procedure: as §1, §7, §8, §9, §2
The test system of a further experiment is Papaver rhoeas. The experiment is described as above. To be noted: 21 days after treatment. The procedure:
as §1, §7, §8, §9, §2

The subject of experiment [2] is Stellaria media. The description is as above. The following applies: 21 days after treatment. The procedure: as §1, §7, §8, §9, §2
Experiment [3] has as its system Stellaria media. Nature of the experiment: Postemergence herbicidal greenhouse evaluation, Test Serie A (Table II, picolinafen/carfentrazone-ethyl). To be noted: 21 days after treatment. The procedure:
as §1, §7, §8, §9, §2

The mark [4] stands for this setting: Picolinafen 30 g/ha, Flufenacet 0 g/ha.
The mark [5] stands for this setting: Picolinafen 60 g/ha, Flufenacet 0 g/ha.
[6] abbreviates: Picolinafen 15 g/ha, Flufenacet 0 g/ha.
[7] abbreviates: Picolinafen 0 g/ha, Flufenacet 15 g/ha.
[8] abbreviates: Picolinafen 0 g/ha, Flufenacet 30 g/ha.
Where [9] appears, read: Picolinafen 0 g/ha, Flufenacet 120 g/ha.

As for `CCOC(=O)/C(Cl)=C/c1cc(N2C(=O)C3=C(CCCC3)C2=O)ccc1Cl` [Cinidon-ethyl, ethyl (Z)-2-chloro-3-[2-chloro-5-(1,3-dioxo-4,5,6,7-tetrahydroisoindol-2-yl)-phenyl]acrylate], the “% Control OBS” value in the experiment with Anthimis mixta (Cinidon-ethyl 50 g/ha alone) is 52%; in the experiment on Veronica persicaria (Cinidon-ethyl 50 g/ha alone), 50%; in the experiment on Stellaria media [1] (Cinidon-ethyl 50 g/ha alone) it was 23%.
`O=C(Nc1ccc(F)cc1)c1cccc(Oc2cccc(C(F)(F)F)c2)n1` [Picolinafen, N-(4-fluorophenyl)-6-(-3-trifluoromethylphenoxy)-pyrid-2-ylcarboxamide]: the “% Control OBS” value with Alopecuris myosuroides (setting [4]) is 20%; in the experiment on Alopecuris myosuroides (setting [5]) it was 43%; in the experiment on Alopecuris myosuroides (Picolinafen 120 g/ha, Flufenacet 0 g/ha), 60%; with Galium aparine (setting [6]), 78%; with Lamium purpurium (setting [4]), 15%; in the experiment on Papaver rhoeas (setting [4]), 15%. Besides, the “% Control OBS” value in the experiment on Papaver rhoeas (setting [5]) was found to be 35%; with Stellaria media [2] (setting [6]) it was 53%; in the experiment with Stellaria media [2] (setting [4]), 73%; in the experiment on Stellaria media [3] (Picolinafen 30 g/ha, Carfentrazone-ethyl 0 g/ha), 37%; in the experiment on Stellaria media [3] (Picolinafen 60 g/ha, Carfentrazone-ethyl 0 g/ha), 45%; with Stellaria media [3] (Picolinafen 120 g/ha, Carfentrazone-ethyl 0 g/ha), 72%. Further, the “% Control OBS” value in the experiment with Anthimis mixta (Picolinafen 50 g/ha alone), with Veronica persicaria (Picolinafen 50 g/ha alone) and with Stellaria media [1] (Picolinafen 50 g/ha alone) was 10% in each case.
As for `CCOC(=O)C(Cl)Cc1cc(-n2nc(C)n(C(F)F)c2=O)c(F)cc1Cl` (racemic) [Carfentrazone-ethyl, ethyl (RS)-2-chloro-3-[2-chloro-5-(4-difluoromethyl-4,5-dihydro-3-methyl-5-oxo-1H-1,2,4-triazol-1-yl)-4-fluorophenyl]propionate], the “% Control OBS” value came to 0% in the experiment on Stellaria media [3] (Picolinafen 0 g/ha, Carfentrazone-ethyl 3.75 g/ha); 0% in the experiment with Stellaria media [3] (Picolinafen 0 g/ha, Carfentrazone-ethyl 7.50 g/ha); 0% in the experiment with Stellaria media [3] (Picolinafen 0 g/ha, Carfentrazone-ethyl 15 g/ha); 0% in the experiment on Stellaria media [3] (Picolinafen 0 g/ha, Carfentrazone-ethyl 30 g/ha).
For `CC(C)N(C(=O)COc1nnc(C(F)(F)F)s1)c1ccc(F)cc1` [Flufenacet], the “% Control OBS” value in the experiment with Alopecuris myosuroides (setting [7]) stood at 75%; with Galium aparine (setting [7]), 40%; in the experiment with Galium aparine (setting [8]) it was 55%; in the experiment with Lamium purpurium (setting [9]), 18%; in the experiment with Papaver rhoeas (setting [7]) it was 0%; in the experiment with Papaver rhoeas (setting [8]), 0%. In addition, the “% Control OBS” value in the experiment with Papaver rhoeas (setting [9]) is 18%; with Stellaria media [2] (setting [8]) it was 0%; with Stellaria media [2] (Picolinafen 0 g/ha, Flufenacet 60 g/ha), 0%; in the experiment with Stellaria media [2] (setting [9]) it was 0%.

These data come from patent US6645911B2, “Synergistic herbicidal mixtures” (BASF Aktiengesellschaft, priority 2000, dated 2003).
